Experimental data taken from PMC12212627, “Machine Learning-Based Virtual Screening of Antibacterial Agents against Methicillin-Susceptible and Resistant Staphylococcus aureus” (Journal of Chemical Information and Modeling, 2024).
In brackets after ≈: the same amount, converted by molar mass.

Legend:
[1] = test system: clinical strain of MRSA n° 5749; assay: Broth microdilution (CLSI): screening at 100 μM and MIC, MRSA clinical strain 5749; assay type: cell-based, Staphylococcus aureus; details: for % of growth inhibition, MRSA (5749): at the concentration given (MIC or 100 μM where MIC >100)
Procedure: (§1) E. coli (ATCC n° […]) – a TEM-1 β-lactamase producing strain, S. aureus (ATCC n° 29213) – herein referred to as MSSA, MRSA (ATCC n° 43300), and two clinical strains of MRSA (n° 5749 and 6154) were used in the biological assays. The antibacterial activity and minimal inhibitory concentration (MIC) of the screened compounds were evaluated with the broth microdilution method in 96-well microplates, according to the Clinical and Laboratory Standards Institute (CLSI) protocol. Initially, compounds were evaluated in a screening assay to identify promising hits. The compounds were dissolved in dimethyl sulfoxide (DMSO) and then diluted in Mueller Hinton broth (MHB; Oxoid, Thermo Scientific, U.K.) to a concentration of 200 μM. After the addition of 100 μL to each well, the same volume of bacterial suspension containing 10^5 CFU/mL was added to each of the previous solutions, resulting in a final compound concentration of 100 μM. A viability control (bacterial suspension only), inhibition controls (MHB containing five times the MIC of penicillin G for MSSA, vancomycin for MRSA strains, and streptomycin for E. coli), a sterility control (medium only), and a vehicle control (DMSO 2% v/v) were included in each assay microplate. After 24 h of incubation at 37 °C, the microplates were visually inspected for inhibition of bacterial growth, and the absorbance at 600 nm of each well was read using a microplate reader spectrophotometer (VersaMax, Molecular Devices, CA). The percentage of growth inhibition was calculated as the percentage of growth reduction compared with the vehicle control. Wells showing no visual bacterial growth (no turbidity) were considered hits. The MIC of the promising compounds in the initial screening were tested as previously described, with a serial dilution of each compound (100–1.56 μM). All conditions were tested in triplicate from at least three independent assays.

[2] = test system: E. coli (ATCC 35218), TEM-1 β-lactamase producing strain; assay: Broth microdilution (CLSI): screening at 100 μM and MIC, E. coli; assay type: cell-based; details: broth microdilution, 24 h, 37 °C
Procedure: as §1

[3] = Cytotoxicity, colorimetric MTT assay; assay type: cell-based; details: African green monkey, Vero (ATCC CCL-81) cells, 72 h incubation
Procedure: As for the cytotoxic concentration of 50% (CC50) determination, the Vero (ATCC CCL-81) cell line was cultured in Eagle’s Minimum Essential Medium (MEM) (Cultilab, Brazil). The medium was supplemented with 5% fetal bovine serum (FBS) (Cultilab, Brazil), in addition to 100 IU/mL penicillin (Cellofarm, Brazil), 100 μg/mL streptomycin (Merck, Germany), and 0.25 μg/mL amphotericin B (Cultilab, Brazil). Cells were seeded in 96-well microplates (4.0 × 10^4 cells per well) and incubated at 37 °C and 5% CO2 atmosphere. After 24 h of incubation, 200 μL of fresh medium containing a serial dilution of the compounds (100–1.56 μM) was added to the plates. Serial dilutions of DMSO were used as vehicle controls. After 72 h of incubation under the same conditions, 100 μL of 3-(4,5-dimethylthiazol-2-yl)–2,5-diphenyltetrazolium bromide (MTT) in MEM (0.5 mg/mL) was added to each well. After 3 h of incubation with MTT (ThermoFischer Scientific), the medium was removed, and 100 μL of DMSO was added to each well to solubilize the formazan crystals. After a brief incubation under shaking for 20 min, the absorbance at 570 nm of each well was read using a spectrophotometer (VersaMax, Molecular Devices). The percentages of inhibition of cell viability were calculated by using the vehicle control. The cytotoxic concentration of 50% (CC50) is defined as the lowest concentration of a given compound that can reduce the viability of cultured cells by 50%. Posteriorly, the selectivity index (SI), that is, the ratio between the CC50 and MIC values of each active compound, was calculated. All conditions were tested in triplicate and at least two independent assays. The overall procedures applied in this work are illustrated in Figure .

[4] = test system: MSSA and MRSA strains; assay: Broth microdilution, results summed up over MSSA and MRSA strains; assay type: cell-based, Staphylococcus aureus; details: Staphylococcus aureus; span over the strains evaluated; read-out: MIC values against MSSA and all MRSA strains
Procedure: as §1

[5] = test system: S. aureus (ATCC n° 29213), MSSA; assay: Broth microdilution (CLSI): screening at 100 μM and MIC, MSSA; assay type: cell-based, Staphylococcus aureus; details: for MIC: broth microdilution, 24 h, 37 °C; for % of growth inhibition, MSSA (ATCC 29123): at the concentration (MIC)
Procedure: as §1

[6] = test system: MRSA (ATCC n° 43300); assay: Broth microdilution (CLSI): screening at 100 μM and MIC, MRSA reference strain; assay type: cell-based, Staphylococcus aureus; details: for MIC: broth microdilution, 24 h, 37 °C; for % of growth inhibition, MRSA (ATCC 43300): at the concentration given (MIC or 100 μM where MIC >100)
Procedure: as §1

[7] = test system: clinical strain of MRSA n° 6154; assay: Broth microdilution (CLSI): screening at 100 μM and MIC, MRSA clinical strain 6154; assay type: cell-based, Staphylococcus aureus; details: for MIC: broth microdilution, 24 h, 37 °C; for % of growth inhibition, MRSA (6154): at the concentration given (MIC or 100 μM where MIC >100)
Procedure: as §1

[8] = pharmacokinetic properties already determined; cited from earlier work
[9] = Staphylococcus aureus, MRSA, broth microdilution, 24 h, 37 °C
[10] = Staphylococcus aureus, ATCC 29123 / MSSA
[11] = Staphylococcus aureus, ATCC 43300 / MRSA

Row | SMILES | MIC [1, 9] | % of growth inhibition, MRSA (5749) [1] | MIC, E. coli (ATCC 35218) [2] | CC50 at 72 h [3] | MIC [4] | MIC [5, 10] | % of growth inhibition, MSSA (ATCC 29123) [5] | MIC [6, 11] | % of growth inhibition, MRSA (ATCC 43300) [6] | MIC ([7]; Staphylococcus aureus, MRSA) | % of growth inhibition, MRSA (6154) [7] | cell permeability [8] | stability in the gastrointestinal tract [8] | MIC, MRSA (5749) ([1]; broth microdilution, 24 h, 37 °C) | inhibition at 100 µM ([5]; Staphylococcus aureus, ATCC 29123 / MSSA, at 100 μM, below the MIC, read-out: % of growth inhibition, MSSA (ATCC 29123), second line) | inhibition at 50 µM ([1]; Staphylococcus aureus, MRSA, at 50 μM, below the MIC, read-out: % of growth inhibition, MRSA (5749), second line) | inhibition at 50 µM ([6]; Staphylococcus aureus, ATCC 43300 / MRSA, at 50 μM, below the MIC, read-out: % of growth inhibition, MRSA (ATCC 43300), second line) | inhibition at 50 µM ([7]; Staphylococcus aureus, MRSA, at 50 μM, below the MIC, read-out: % of growth inhibition, MRSA (6154), second line)
1 | CC(=O)O[C@@H]1[C@H](OC(C)=O)[C@H](C)O[C@H](n2cc(COC3=CC(=O)c4ccccc4C3=O)nn2)[C@H]1OC(C)=O [Compound 1, 2-[1-(2,3,4-tri-O-acetyl-6-deoxy-β-L-galactopyranosyl)-1,2,3-triazol-4-(methyl)oxy]-1,4-naphtoquinone] | > 100 µM | 41.76% | − | 33.8 ± 3.44 µM | ≥ 100 µM | 100 µM (≈ 52.7 µg/mL) | 99.60% | > 100 µM | 70.02% | > 100 µM | 50.60% |  |  |  |  |  |  | 
2 | C#CCOC1=CC(=O)c2ccccc2C1=O [Compound 3, 2-[(prop-2-yn-1-yl)oxy]-1,4-naphtoquinone] | 50 µM (≈ 10.6 µg/mL) | > 99.9% | − | 21.2 ± 8.89 µM | 50 µM (≈ 10.6 µg/mL) | 50 µM (≈ 10.6 µg/mL) | 96.52% | 50 µM (≈ 10.6 µg/mL) | > 99.9% | 50 µM (≈ 10.6 µg/mL) | > 99.9% |  |  |  |  |  |  | 
3 | C=C/C(C)=C\C[C@]1(C)[C@H](C)C[C@H](O)[C@@]23C(=C[C@H](OC(=O)CCC)C[C@@H]12)[C@@H](OC(C)=O)O[C@H]3OC(C)=O [Compound 5, [(1S,3R,5R,6aS,7R,8R,10S,10aS)-1,3-diacetyloxy-10-hydroxy-7,8-dimethyl-7-[(2Z)-3-methylpenta-2,4-dienyl]-1,3,5,6,6a,8,9,10-octahydrobenzo[d][2]benzofuran-5-yl] butanoate] |  |  | − |  |  | 200 µM (≈ 101 µg/mL) | 96.43% | 100 µM (≈ 50.5 µg/mL) | > 99.9% | 100 µM (≈ 50.5 µg/mL) | > 99.9% | high | degradation in the gastrointestinal tract | − | 27.4% |  |  | 
4 | O=C(NCCCOCCCNC(=O)c1ccc(-c2ccc(Br)cc2)o1)c1ccc(-c2ccc(Br)cc2)o1 [Compound 6, N,N′-(oxybis(propane-3,1-diyl))-bis(5-(4-bromophenyl)furan-2-carboxamide)] | 100 µM (≈ 63 µg/mL) | > 99.9% | − | 43.4 ± 4.66 µM | 50 to 100 µM (≈ 31.5 to 63 µg/mL) | 50 µM (≈ 31.5 µg/mL) | > 99.9% | 100 µM (≈ 63 µg/mL) | > 99.9% | 100 µM (≈ 63 µg/mL) | > 99.9% |  |  |  |  | 73.5% | 85.3% | 78.4%
